Results reported in paper PMC10617569, “The Ustilago maydis AA10 LPMO is active on fungal cell wall chitin” (Applied and Environmental Microbiology, 2023).

Molecular target: T1, UmAA10_cd (Mycosarcoma maydis, UniProt A0A0D1CHL0)
T1 construct: gene UMAG_05439; catalytic domain only; C-terminal extension removed between Gly203 and Gly204; C-terminal (His)6-tag; made in Pichia pastoris SuperMan5; copper loaded
Assay: Amplex red / HRP assay of H2O2 production, absorbance at […] nm
Assay type: biochemical
Settings: reductant of the LPMO oxidase reaction, 50 µM ascorbic acid with O2; 1 µM enzyme; sodium phosphate 50 mM pH 7.0; 23°C

T1 sequence (A0A0D1CHL0 33-203): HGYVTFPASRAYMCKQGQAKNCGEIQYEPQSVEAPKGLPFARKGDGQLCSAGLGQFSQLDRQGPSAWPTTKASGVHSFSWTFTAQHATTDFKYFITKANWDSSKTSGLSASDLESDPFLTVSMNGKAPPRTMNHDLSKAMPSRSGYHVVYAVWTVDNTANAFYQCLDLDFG

O=C1O[C@H]([C@@H](O)CO)C(O)=C1O [ascorbic acid]
Amplex red / HRP assay of H2O2 production, absorbance at 575 nm: Using ascorbic acid (AscA) as a reductant, we found that UmAA10_cd produces H2O2
